Measurements: patent US20240239794A1, “PKC-Theta Modulators” (Exscientia AI Limited, priority 2021, published 2024)
Read-outs that look alike come from different tables or passages of the source.

Assays:
[1] = molecular target: Recombinant human PKC-delta (His-tagged 345-676) (Homo sapiens (Human), UniProt Q05655); assay: PKC-delta inhibition assay (HTRF KinEASE kit), PKC-theta/PKC-delta selectivity; type: biochemical; conditions: ratio; for PKC-theta/PKC-delta selectivity: PKC-theta over PKC-delta, HTRF assays; for PKC-theta/PKC-delta selectivity (binned): binned A to G
Summary of the method: (§1)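 Ten semi-log compound doses were fitted by 4-parameter logistic to HTRF acceptor/donor ratios for IC50. Reactions at 25° C used 6.5 μM ATP and 525 nM STK substrate for 30 min (PKC-theta) or 5.7 μM ATP and 243 nM substrate for 20 min (PKC-delta), after 30 min on-ice enzyme–compound preincubation at 10 ng/ml enzyme.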

[2] = tested on: IL-2 secretion by human effector memory T cells (TEM); assay: Effector memory T cells IL-2 release assay; type: cell-based; conditions: T-cell, human CD4+ TEM cells, CD3/CD28 bead stimulation, 24 h
Summary of the method: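 IC50 values come from a 4-parameter fit of HTRF-measured IL-2 against 10 semi-log doses, relative to maximal IL-2 in each experiment. Donor-derived CD4+ TEM cells were bead-stimulated (anti-CD3/CD28) with compound for 24 h at 37° C; cytotoxicity was excluded by viability dye staining.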

[3] = molecular target: Recombinant human PKC-theta (His-tagged 362-706) (Homo sapiens (Human), UniProt Q04759); assay: PKC-theta inhibition assay (HTRF KinEASE kit); type: biochemical; conditions: ATP 6.5 μM
Summary of the method: as §1

[4] = binned A to G, read-out: PKC-theta IL2 pIC50 (binned) (converted)
[5] = read-out: PKC-theta IL2 pIC50 (converted)
[6] = binned A to H, read-out: PKC-theta HTRF pIC50 (binned) (converted)
[7] = read-out: PKC-theta HTRF pIC50 (converted)

Sequence of Recombinant human PKC-theta (His-tagged 362-706) (Q04759 362-706): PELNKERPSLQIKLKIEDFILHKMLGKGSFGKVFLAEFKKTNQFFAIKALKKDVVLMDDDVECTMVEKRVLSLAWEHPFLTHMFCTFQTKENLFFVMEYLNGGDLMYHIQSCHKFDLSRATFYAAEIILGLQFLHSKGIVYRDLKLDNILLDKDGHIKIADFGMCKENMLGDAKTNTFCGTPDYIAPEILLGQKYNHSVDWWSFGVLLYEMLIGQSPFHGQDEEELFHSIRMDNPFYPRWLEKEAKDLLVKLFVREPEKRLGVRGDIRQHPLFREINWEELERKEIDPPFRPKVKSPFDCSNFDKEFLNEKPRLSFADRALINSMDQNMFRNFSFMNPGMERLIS
Sequence of Recombinant human PKC-delta (His-tagged 345-676) (Q05655 345-676): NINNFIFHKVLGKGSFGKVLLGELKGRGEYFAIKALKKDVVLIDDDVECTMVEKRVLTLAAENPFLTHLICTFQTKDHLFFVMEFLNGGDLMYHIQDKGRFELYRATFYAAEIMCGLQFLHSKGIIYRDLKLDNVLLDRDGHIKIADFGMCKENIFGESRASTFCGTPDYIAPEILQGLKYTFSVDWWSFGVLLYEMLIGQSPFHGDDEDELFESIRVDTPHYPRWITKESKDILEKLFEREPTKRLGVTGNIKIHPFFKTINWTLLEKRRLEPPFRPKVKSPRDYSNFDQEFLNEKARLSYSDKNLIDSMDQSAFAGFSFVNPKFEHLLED

| PKC-theta/PKC-delta selectivity [1] | PKC-theta/PKC-delta selectivity (binned) [1] | IC50 [2, 4] | IC50 [2, 5] | PKC-theta HTRF pIC50 [3] | IC50 [3, 6] | IC50 [3, 7] | SMILES |
| --- | --- | --- | --- | --- | --- | --- | --- |
| 26 | C (C means a ratio of between 20 and 30) | > 1000 nM | 1260 nM | 7.5 | 10 to 31.6 nM |  | CC1(C)C(=O)Nc2nccc(-c3nn(C[C@H]4COCCN4)c4ccccc34)c21 [Example 86] |
| 22 | C (C means a ratio of between 20 and 30) | 31.6 to 100 nM | 100 nM |  | 1 to 3.16 nM | 3.16 nM | CO[C@]1(C)C(=O)Nc2nccc(-c3nn(CC4(F)CCNCC4)c4cc(F)ccc34)c21 (single isomer, unassigned) [Example 76] |
| 10 | E (E means a ratio of between 5 and 10) | 31.6 to 100 nM | 50.1 nM |  | 3.16 to 10 nM | 3.98 nM | CO[C@@]1(C)C(=O)Nc2nccc(-c3nn([C@H]4CCNC[C@H]4F)c4ccccc34)c21 (single isomer, unassigned) [Example 93] |
| 8 | E (E means a ratio of between 5 and 10) | 100 to 316 nM | 100 nM |  | 3.16 to 10 nM | 3.98 nM | C[C@@]1(O)C(=O)Nc2nccc(-c3nn(C4(CC#N)CCC4)c4ncccc34)c21 (single isomer, unassigned) [Example 60] |
| 18 | D (D means a ratio of between 10 and 20) | 10 to 31.6 nM | 10 nM |  | ≤ 1 nM | 0.501 nM | C[C@@]1(O)C(=O)Nc2nccc(-c3nn(C4(CC#N)CCC4)c4c(F)cccc34)c21 (single isomer, unassigned) [Example 58] |

The next lines start with the molecule.

| SMILES | PKC-theta/PKC-delta selectivity [1] | PKC-theta/PKC-delta selectivity (binned) [1] | IC50 [2, 4] | IC50 [2, 5] | PKC-theta HTRF pIC50 [3] | IC50 [3, 6] | IC50 [3, 7] |
| --- | --- | --- | --- | --- | --- | --- | --- |
| COC1(C)C(=O)Nc2nccc(-c3nn(C4(CC#N)CCC4)c4ccccc34)c21 (stereo not drawn) [Example 57] | 14 | D (D means a ratio of between 10 and 20) | 31.6 to 100 nM | 50.1 nM | 8.9 | 1 to 3.16 nM |  |
| CC1(C)C(=O)Nc2nccc(-c3nn(C4CCNCC4)c4ccccc34)c21 [Example 9] | 15 | D (D means a ratio of between 10 and 20) | 31.6 to 100 nM | 39.8 nM | 8.7 | 1 to 3.16 nM |  |
| O=c1[nH]c2nccc(-c3cnn(C4CCNCC4)c3)c2[nH]1 [Example 1] | 1 | G (G means a ratio of between 0 and 1) | > 1000 nM | 3160 nM | 6.1 | 316 to 1000 nM |  |
| C[C@@]1(O)C(=O)Nc2nccc(-c3nn(C4CCNCC4)c4c(OC(F)F)cccc34)c21 (single isomer, unassigned) [Example 43] | 11 | D (D means a ratio of between 10 and 20) | 316 to 1000 nM | 316 nM |  | 3.16 to 10 nM | 7.94 nM |
